In ChEMBL document CHEMBL2440092, “Investigation of aryl halides as ketone bioisosteres: refinement of potent and selective inhibitors of human cytochrome P450 19A1 (aromatase)” (Bioorg Med Chem Lett, 2013):

Target: T1, Aromatase (Homo sapiens, UniProt P11511)
T1 sequence (P11511 whole entry): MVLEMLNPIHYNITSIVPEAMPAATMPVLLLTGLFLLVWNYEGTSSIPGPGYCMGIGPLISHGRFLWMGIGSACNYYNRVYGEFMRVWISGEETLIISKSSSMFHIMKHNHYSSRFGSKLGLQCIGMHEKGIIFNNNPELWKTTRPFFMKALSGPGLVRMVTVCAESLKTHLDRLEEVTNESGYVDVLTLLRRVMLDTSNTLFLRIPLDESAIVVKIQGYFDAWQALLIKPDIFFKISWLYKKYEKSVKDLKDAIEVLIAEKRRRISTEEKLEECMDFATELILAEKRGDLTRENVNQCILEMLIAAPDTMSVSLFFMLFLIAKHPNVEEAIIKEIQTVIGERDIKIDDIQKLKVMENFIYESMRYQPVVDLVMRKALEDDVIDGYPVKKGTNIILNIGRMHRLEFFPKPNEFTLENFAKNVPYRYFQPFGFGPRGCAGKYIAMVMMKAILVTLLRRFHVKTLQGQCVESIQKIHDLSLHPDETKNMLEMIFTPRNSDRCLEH
Description: Inhibition of recombinant human aromatase using O-dibenzylfluorescein benzyl ester as substrate by fluorometric assay

Structure (SMILES) | Ki
CC(=O)O[C@@H](c1ccc(F)cc1)[C@@H](Cn1ccnn1)c1ccccc1 | 110 nM
CC(=O)O[C@@H](c1ccc(Br)cc1)[C@@H](Cn1ccnn1)c1ccccc1 | 90 nM
CC(=O)O[C@@H](c1ccccc1)[C@@H](Cn1ccnn1)c1ccc(Br)cc1 | 237 nM
COCO[C@@H](c1ccc(F)cc1)[C@H](Cn1ccnn1)c1ccccc1 | 160 nM
COCO[C@@H](c1ccccc1)[C@H](Cn1ccnn1)c1ccc(Br)cc1 | 20 nM
O[C@@H](c1ccc(F)cc1)[C@H](Cn1ccnn1)c1ccccc1 | 200 nM
O[C@@H](c1ccccc1)[C@H](Cn1ccnn1)c1ccc(Br)cc1 | 841 nM
CC(=O)O[C@@H](c1ccc(F)cc1)[C@H](Cn1ccnn1)c1ccccc1 | 350 nM

Other lines, results leading:

Ki | Structure (SMILES)
20 nM | COCO[C@@H](c1ccc(Br)cc1)[C@@H](Cn1ccnn1)c1ccccc1
111 nM | COCO[C@@H](c1ccccc1)[C@@H](Cn1ccnn1)c1ccc(Br)cc1
330 nM | O[C@@H](c1ccc(F)cc1)[C@@H](Cn1ccnn1)c1ccccc1
820 nM | O[C@@H](c1ccccc1)[C@@H](Cn1ccnn1)c1ccc(Br)cc1
70 nM | COCO[C@@H](c1ccc(Br)cc1)[C@H](Cn1ccnn1)c1ccccc1
647 nM | CC(=O)O[C@@H](c1ccccc1)[C@H](Cn1ccnn1)c1ccc(Br)cc1
80 nM | COCO[C@@H](c1ccc(F)cc1)[C@@H](Cn1ccnn1)c1ccccc1
